Laboratory results: patent US20260138976A1 (Hoffmann-La Roche Inc., priority 2022, published 2026)
pEC50: −log10 of the molar value.

What was measured:
primary human T-cells [1] = assay: IL2 secretion measurements (24 h, CD3-stimulated T-cells, PBS counter screen); format: cell-based; settings: for Emax IL2 (% activation): CD3 condition, normalised to DMSO (neutral) and 20 μM reference compound A1 = 100%; for pEC50: Homo sapiens, T-cell, CD3-stimulated primary human T-cells, IL2 secretion, fitted sigmoidal curve, read-out: Tcell IL2 CD3 EC50
Protocol: (§1) As readouts for T-cell activation, 1L2 secretion after 24 hours and proliferation after 5 days was measured. Increases in IL2 secretion and proliferation upon compound treatment were assessed as the % of the maximum of reference compound A1. WO 2016/139181 discloses reference compound A1 as example 70. As a counter screen and to make sure that no unwanted TCR-independent activation was triggered, PBS conditions were run for all compounds.
Expanded primary human T-cells were thawed and cultured in RPMI 1640 (Gibco, #61870-010)+5% human serum (HS, Sigma, #H3667)+1 mM Sodium Pyruvate (Gibco, #11360-039)+50 μM 2-mercaptoethanol (Gibco, #31350-010) and 1× Pen-Strep (Life Technologies, #15140122) medium at density of 2 Mio/ml for 3 hours in 5% CO2, 37° C. and 95% humidity. For coating of plates, […] or PBS++ with CD3 antibody (concentration depending on donor and determined by CD3 titrations) was added 100 μl/well to Poly-D Lysine coated 96-well plates. Plates were sealed and incubated at room temperature for 3 hours on a table-top rocking platform. After incubation, plates were washed once with PBS−− and filled with 40 μl/well culture medium only. Compounds were then added (see next section) to medium only plates. After 3 hours of culturing the T-cells, cells were filtered through a cell strainer (Miltenyi Biotech, #130-041-407), counted again and concentration was adjusted to 1.25 Mio/ml.
Cells were then seeded 80 μl/well to the 40 μl/well including dispensed compounds according to plate layout. By adding cells, compounds were further diluted 1:3, and resulting in 100 k cells/120 μl/well. After 24 hours 40 μl of supernatant was collected carefully from the top while not disturbing the cells and transferred into a round bottom 96 well plate. Collected and frozen supernatant was used for detection of IL2 using the IL-2 Human ProQuantum Immunoassay Kit (Invitrogen) or using the Human IL-2 ELISA Kit (Thermo Fisher).
(§2) Compounds were added in a 5 or 6 pt dose response with the Tecan D300e Digital Dispenser, all conditions 3 times more concentrated than the end-concentration, since cells are added afterwards (80 μl cells to 40 μl prepared medium with treatment). The DR was starting at 20 μM or 10 μM final top concentration and a dilution factor of 3.333. The positive control was the reference compound A1 that was added in a dose response as well, additionally to 3 wells of only 20 μM representing the positive stimulator control. All wells were normalized with DMSO to a final concentration of 0.6% (0.2% end-concentration).
The immunoassay is done following the manufacturer's manual (Invitrogen, #A35603). Additional information: For the immunoassay, MicroAmp™ EnduraPlate™ Optical 384-Well plates are used. Frozen supernatant is thawed and centrifuged for 5 minutes at 1000×g, both steps at 4° C. After centrifugation, required sample amount is taken from the top, and in a separate LightCycler V-bottom plate (working plate) diluted with assay dilution buffer, dilution factor depending on the PBS or CD3 condition but at least 1:3. IL-2 standard and blanks are prepared in the same V-bottom plate, standard with a range of 0.0128-5000 pg/ml (extended version). After preparation, 5 μl of sample dilutions or standard/blanks are transferred to the optical 384-well plate (assay plate) and the 10 μl reaction protocol is being followed. For measurement, the QuantStudio 12K Flex system is used. Raw data is extracted and IL-2 concentrations are calculated with the Thermo Fisher online app (apps.thermofisher.com/apps/proquantum).
ELISA is done following the manufacturer's manual (Thermo Fisher Scientific, #88-7025-88). Additional information: For the ELISA Nunc MaxiSorp 96 well plates are used. Frozen supernatant is thawed and centrifuged for 5 minutes at 1000×g, both steps at 4° C. […]

primary human T-cells [2] = assay: Proliferation assay (5 days, CellTiter-Glo, CD3-stimulated T-cells); format: cell-based; settings: for Emax proliferation (% activation): CD3 condition, normalised to DMSO (neutral) and 20 μM reference compound A1 = 100%; for pEC50: Homo sapiens, T-cell, 120 h, CD3-stimulated primary human T-cells, 5 days, CellTiter-Glo, fitted sigmoidal curve, read-out: Tcell Proliferation CD3 EC50
Protocol: as §1
Expanded primary human T-cells are thawed and cultured in RPMI 1640 (Gibco, #61870-010)+5% human serum (HS, Sigma, #H3667)+1 mM Sodium Pyruvate (Gibco, #11360-039)+50 μM 2-mercaptoethanol (Gibco, #31350-010) and 1× Pen-Strep (Life Technologies, #15140122) medium at density of 2 Mio/ml for 3 hours in 5% CO2, 37° C. and 95% humidity. For coating of plates, PBS++ only or PBS++ with CD3 antibody (concentration depending on donor and determined by CD3 titrations) is added 100 μl/well to Poly-D Lysine coated 96-well plates. Plates are sealed and incubated at room temperature for 3 hours on a table-top rocking platform. After incubation, plates are washed once with PBS−− and filled with 40 μl/well culture medium only. Compounds are then added (see next section) to medium only plates. After 3 hours of culturing the T-cells, cells are filtered through a cell strainer (Miltenyi Biotech, #130-041-407), counted again and concentration is adjusted to 1.25 Mio/ml.
Cells are then seeded 80 μl/well to the 40 μl/well including dispensed compounds according to plate layout. By adding cells, compounds are further diluted 1:3, and resulting in 100 k cells/120 μl/well. After 48 hours 40 μl of supernatant is collected carefully from the top while not disturbing the cells. Cells are assessed for proliferation 5 days later by measuring […] using CellTiterGlo (Promega).
as §2
After 5 days, for detection of ATP which is directly proportional to the number of cells present per well, the CellTiter-Glo® 2.0 Reagent is used. After visual control for toxicity or precipitations of the tested compounds, the plates are equilibrated to room temperature for 45 minutes. CellTiter-Glo® 2.0 Reagent is equilibrated to room temperature as well. After equilibration, an equal amount of CellTiter-Glo reagent is added to the cells (80 μl/well) with an electronic multichannel pipette. Plates are placed on a rocking platform for 15 minutes at room temperature. After incubation, the bottom of the plates is sealed with backing tape. Luminescence is measured with PHERAstar FSX (interval time 0.5 sec, gain 3000, focal height 15 mm) and exported as CSV file for analysis in Genedata screener.
CD3 and PBS plates were analysed separately in Genedata Screener using Roche Normalization PCT_POS_CTRL with DMSO set as Neutral Control and 20 μM of the reference compound A1 set as Stimulator Control/100%.
For CD3 conditions EC50 and Emax of the fitted sigmoidal curve were reported. If no curve could be fitted, the EC50 was reported as blank field and the Emax was based on individual data points. […] Compounds which activate unstimulated cells (see IL2 measurements) or compounds which negatively affected viability were flagged.

SMILES | Emax IL2 (% activation) (primary human T-cells [1]) | pEC50 (primary human T-cells [1]) | Emax proliferation (% activation) (primary human T-cells [2]) | pEC50 (primary human T-cells [2])
NC(c1nnc(-c2ccc3c(c2)N(Cc2ccc(-c4ccc(C(F)(F)F)cc4)cc2)C(=O)[C@@H](N)CS3(=O)=O)o1)C(F)(F)F (stereo partly drawn) [Example 151, (3R)-3-amino-7-[5-(1-amino-2,2,2-trifluoro-ethyl)-1,3,4-oxadiazol-2-yl]-1,1-dioxo-5-[4-[4-(trifluoromethyl)phenyl]phenyl] methyl 1-2,3-dihydro-1λ^6,5-benzothiazepin-4-one] | 65 | 6.04 | 105 | 5.73
CC(C)(C)c1nnc(-c2ccc3c(c2)N(Cc2ccc(-c4nc(C(F)(F)F)no4)cc2)C(=O)[C@@H](N)CS3(=O)=O)o1 [Example 26, (3R)-3-amino-7-(5-tert-butyl-1,3,4-oxadiazol-2-yl)-1,1-dioxo-5-[[4-[3-(trifluoromethyl)-1,2,4-oxadiazol-5-yl]phenyl]methyl]-2,3-dihydro-1λ^6,5-benzothiazepin-4-one] | 155 | 5.80 | 184 | 6.52
COC(F)(c1nnc(-c2ccc3c(c2)N(Cc2ccc(-c4nnc(C(F)(F)F)o4)cc2)C(=O)[C@@H](N)CS3(=O)=O)o1)C(F)(F)F (stereo partly drawn) [Example 67, (3R)-3-amino-1,1-dioxo-7-[5-(1,2,2,2-tetrafluoro-1-methoxy-ethyl)-1,3,4-oxadiazol-2-yl]-5-[[4-[5-(trifluoromethyl)-1,3,4-oxadiazol-2-yl]phenyl]methyl]-2,3-dihydro-1λ^6,5-benzothiazepin-4-one] | 168 | 6.13 | 119 | 6.58
N[C@H]1CS(=O)(=O)c2ccc(-c3nnc(C4(N)CCCCC4)o3)cc2N(Cc2ccc(-c3noc(C4CCC(F)(F)C4)n3)cc2)C1=O (stereo partly drawn) [Example 44, (3R)-3-amino-7-[5-(1-aminocyclohexyl)-1,3,4-oxadiazol-2-yl]-5-[[4-[5-(3,3-difluorocyclopentyl)-1,2,4-oxadiazol-3-yl]phenyl]methyl]-1,1-dioxo-2,3-dihydro-1λ^6,5-benzothiazepin-4-one] | 112 | 5.98 | 124 | 6.13
N#CC1(c2nnc(-c3ccc4c(c3)N(Cc3ccc(-c5ccc(OC(F)(F)F)cn5)cc3)C(=O)[C@@H](N)CS4(=O)=O)o2)CCOC1 (stereo partly drawn) [Example 177, 3-[5-[(3R)-3-amino-1,1,4-trioxo-5-[[4-[5-(trifluoromethoxy)-2-pyridyl]phenyl]methyl]-2,3-dihydro-1λ^6,5-benzothiazepin-7-yl]-1,3,4-oxadiazol-2-yl]tetrahydrofuran-3-carbonitrile] | – | – | 101 | 6.09
N[C@H]1CS(=O)(=O)c2ccc(-c3nnc(N4CCC(F)(F)CC4)o3)cc2N(Cc2ccc(-c3noc(C4CC4)n3)cc2)C1=O [Example 69, (3R)-3-amino-5-[[4-(5-cyclopropyl-1,2,4-oxadiazol-3-yl)phenyl]methyl]-7-[5-(4,4-difluoro-1-piperidyl)-1,3,4-oxadiazol-2-yl]-1,1-dioxo-2,3-dihydro-1λ^6,5-benzothiazepin-4-one] | 83 | 6.35 | 125 | 6.39
CC(C)(C)c1nnc(-c2ccc3c(c2)N(Cc2ccc(-c4cc(C(F)(F)F)on4)cc2)C(=O)[C@@H](N)CS3(=O)=O)o1 [Example 30, (3R)-3-amino-7-(5-tert-butyl-1,3,4-oxadiazol-2-yl)-1,1-dioxo-5-[[4-[5-(trifluoromethyl)isoxazol-3-yl]phenyl]methyl]-2,3-dihydro-1λ^6,5-benzothiazepin-4-one] | 117 | 5.45 | 139 | 5.36
N[C@H]1CS(=O)(=O)c2ccc(-c3nnc(N4CCOC(F)(F)C4)o3)cc2N(Cc2ccc(-c3nnc(C(F)F)o3)cc2)C1=O [Example 82, (3R)-3-amino-5-[[4-[5-(difluoromethyl)-1,3,4-oxadiazol-2-yl]phenyl]methyl]-7-[5-(2,2-difluoromorpholin-4-yl)-1,3,4-oxadiazol-2-yl]-1,1-dioxo-2,3-dihydro-1λ^6,5-benzothiazepin-4-one] | 25 | < 5.00 | 78 | 5.21
CN1CCC(C#N)(c2nnc(-c3ccc4c(c3)N(Cc3ccc(-c5ccc(OC(F)(F)F)cn5)cc3)C(=O)[C@@H](N)CS4(=O)=O)o2)CC1 [Example 180, 4-[5-[(3R)-3-amino-1,1,4-trioxo-5-[[4-[5-(trifluoromethoxy)-2-pyridyl]phenyl]methyl]-2,3-dihydro-1λ^6,5-benzothiazepin-7-yl]-1,3,4-oxadiazol-2-yl]-1-methyl-piperidine-4-carbonitrile] | – | – | 102 | 6.19
N[C@H]1CS(=O)(=O)c2ccc(-c3nnc(C4(N)CC(F)(F)C4)o3)cc2N(Cc2ccc(-c3ccc(OC(F)(F)F)cn3)cc2)C1=O [Example 179] | – | – | 106 | 6.03
CC(C)(C#N)c1nnc(-c2ccc3c(c2)N(Cc2ccc(-c4nc(C5CC5)no4)cc2)C(=O)[C@@H](N)CS3(=O)=O)o1 [Example 139, 2-[5-[(3R)-3-amino-5-[[4-(3-cyclopropyl-1,2,4-oxadiazol-5-yl)phenyl]methyl]-1,1,4-trioxo-2,3-dihydro-1λ^6,5-benzothiazepin-7-yl]-1,3,4-oxadiazol-2-yl]-2-methyl-propanenitrile] | – | – | 93 | 5.99
